In the NIST ThermoML archive (doi:10.1016/j.fluid.2018.03.018):
± gives the expanded uncertainty stated by the source.

Assay: xn = mol fraction of the nth substance listed
Conditions: 101 kPa, Liquid, Vibrating tube method

mass density (298.15 K, x1 = 0.25) [kg/m3] | mass density (303.15 K, x1 = 0.25) [kg/m3] | mass density (308.15 K, x1 = 0.25) [kg/m3] | mass density (313.15 K, x1 = 0.25) [kg/m3] | mass density (318.15 K, x1 = 0.25) [kg/m3] | mass density (323.15 K, x1 = 0.25) [kg/m3] | SMILES | mass density (293.15 K, x1 = 0.3333) [kg/m3] | mass density (298.15 K, x1 = 0.3333) [kg/m3] | mass density (303.15 K, x1 = 0.3333) [kg/m3] | mass density (308.15 K, x1 = 0.3333) [kg/m3] | mass density (313.15 K, x1 = 0.3333) [kg/m3] | mass density (318.15 K, x1 = 0.3333) [kg/m3] | mass density (323.15 K, x1 = 0.3333) [kg/m3] | mass density (328.15 K, x1 = 0.3333) [kg/m3] | mass density (333.15 K, x1 = 0.3333) [kg/m3] | mass density (338.15 K, x1 = 0.3333) [kg/m3] | mass density (343.15 K, x1 = 0.3333) [kg/m3]
1295.8 ± 1.1 | 1292.4 ± 1.1 | 1288.9 ± 1.1 | 1285.3 ± 1.1 | 1281.7 ± 1.1 | 1278.1 ± 1.1 | C[P+](c1ccccc1)(c1ccccc1)c1ccccc1.[Br-] [methyltriphenylphosphonium bromide] + OCC(O)CO |  |  |  |  |  |  |  |  |  |  | 
1249.1 ± 1.1 | 1245.7 ± 1.1 | 1242.2 ± 1.1 | 1238.8 ± 1.1 | 1235.4 ± 1.1 | 1231.9 ± 1.1 | C[P+](c1ccccc1)(c1ccccc1)c1ccccc1.[Br-] [methyltriphenylphosphonium bromide] + OCCO |  |  |  |  |  |  |  |  |  |  | 
 |  |  |  |  |  | CC[N+](CC)(CC)CC.[Cl-] [tetraethylammonium chloride] + OCC(O)CO | 1124 ± 1 | 1121 ± 1 | 1118.1 ± 1 | 1115.1 ± 1 | 1112.3 ± 1 | 1109.4 ± 1 | 1106.6 ± 1 | 1103.8 ± 1 | 1101 ± 1 | 1098.2 ± 1 | 1095.4 ± 1
 |  |  |  |  |  | CC[N+](CC)(CC)CC.[Cl-] [tetraethylammonium chloride] + OCCO | 1052.3 ± 1 | 1049.4 ± 1 | 1046.6 ± 1 | 1043.7 ± 1 | 1040.9 ± 1 | 1038.1 ± 1 | 1035.3 ± 1 | 1032.5 ± 1 | 1029.7 ± 1 | 1026.9 ± 1 | 1024.1 ± 1
